Literature values as cited in patent US9066886B2, “Transdermal drug delivery system containing granisetron” (TAHO PHARMACEUTICALS, LTD., priority 2008, dated 2015).

Conditions: tablet with 1 mg of granisetron; from Korean Patent Laid-Open Publication No. 10-2005-0116365

Cmax: 3.6 ng/mL
SMILES: CN1C2CCCC1CC(NC(=O)c1nn(C)c3ccccc13)C2 (stereo not shown) [granisetron]
